Legend:
[1] = tested on: H1975 (EGFR T790M/L858R) cell proliferation; test: H1975 proliferation assay (Cell Titer-Glo); type: cell-based; details: Homo sapiens, NCI-H1975, 72 h, NCI-H1975 cells, 72 hour incubation, read-out: H1975 antiproliferative EC50
Procedure: H1975 Proliferation Assays
All cell culture reagents were purchased from Invitrogen/Gibco. Cells are cultured at 37° C. at 5% CO2 and split as recommended by ATCC.

EGFR T790M L858R = molecular target: T1, EGFR T790M L858R (Homo sapiens, UniProt P00533, L858R/T790M); test: EGFR T790M L858R biochemical assay (Caliper mobility shift); details: 5 μM ATP; apparent Ki (Morrison fit) converted by Cheng-Prusoff, Km of ATP 1.3 μM
T1 construct: purchased Life Technologies PV4879
Outline: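 Caliper mobility-shift read-out, electrophoretic separation of substrate from product, after a 30-minute kinase reaction at 22 °C. EDTA at 80 mM terminates each reaction.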

[2] = molecular target: T2, phosphor-EGFR in H1975(L585R/T790M) mutant EGFR expressing cells (Homo sapiens, UniProt P00533, L858R/T790M); test: H1975 pEGFR MSD cellular assay; type: cell-based; details: NCI-H1975 cells, serum starved, 1 hour compound incubation, pEGFR Tyr1068 MSD; read-out: HI975 pEGFR EC50
T2 construct: host or cells: NCI-H1975
Outline: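 Phospho-EGFR read by MSD electrochemiluminescence: capture with anti-pEGFR antibody (overnight, 4° C), detection with SULFO-TAG anti-total EGFR (1 hour, room temperature). Before lysis, H1975 cells starved of serum overnight got compound for 1 hour at 37° C, 0.5% DMSO final. EC50 via four-parameter logistic regression of percent inhibition.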

EGFR del746-750 T790M = molecular target: T3, EGFR del746-750 T790M (Homo sapiens, UniProt P00533, DEL746-750/T790M); test: EGFR del746-750 T790M biochemical assay (Caliper mobility shift); details: 5 μM ATP; apparent Ki (Morrison fit) converted by Cheng-Prusoff, Km of ATP 2.1 μM; read-out: EGFR(T790M/d746-750) Ki
T3 construct: purchased Carna Biosciences 08-528
Outline: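 Caliper mobility-shift read-out, with product electrophoretically resolved from substrate and measured. Reactions were quenched with 80 mM EDTA after 30 min at 22 °C.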

T1 sequence (P00533 25-1210 T790M/L858R): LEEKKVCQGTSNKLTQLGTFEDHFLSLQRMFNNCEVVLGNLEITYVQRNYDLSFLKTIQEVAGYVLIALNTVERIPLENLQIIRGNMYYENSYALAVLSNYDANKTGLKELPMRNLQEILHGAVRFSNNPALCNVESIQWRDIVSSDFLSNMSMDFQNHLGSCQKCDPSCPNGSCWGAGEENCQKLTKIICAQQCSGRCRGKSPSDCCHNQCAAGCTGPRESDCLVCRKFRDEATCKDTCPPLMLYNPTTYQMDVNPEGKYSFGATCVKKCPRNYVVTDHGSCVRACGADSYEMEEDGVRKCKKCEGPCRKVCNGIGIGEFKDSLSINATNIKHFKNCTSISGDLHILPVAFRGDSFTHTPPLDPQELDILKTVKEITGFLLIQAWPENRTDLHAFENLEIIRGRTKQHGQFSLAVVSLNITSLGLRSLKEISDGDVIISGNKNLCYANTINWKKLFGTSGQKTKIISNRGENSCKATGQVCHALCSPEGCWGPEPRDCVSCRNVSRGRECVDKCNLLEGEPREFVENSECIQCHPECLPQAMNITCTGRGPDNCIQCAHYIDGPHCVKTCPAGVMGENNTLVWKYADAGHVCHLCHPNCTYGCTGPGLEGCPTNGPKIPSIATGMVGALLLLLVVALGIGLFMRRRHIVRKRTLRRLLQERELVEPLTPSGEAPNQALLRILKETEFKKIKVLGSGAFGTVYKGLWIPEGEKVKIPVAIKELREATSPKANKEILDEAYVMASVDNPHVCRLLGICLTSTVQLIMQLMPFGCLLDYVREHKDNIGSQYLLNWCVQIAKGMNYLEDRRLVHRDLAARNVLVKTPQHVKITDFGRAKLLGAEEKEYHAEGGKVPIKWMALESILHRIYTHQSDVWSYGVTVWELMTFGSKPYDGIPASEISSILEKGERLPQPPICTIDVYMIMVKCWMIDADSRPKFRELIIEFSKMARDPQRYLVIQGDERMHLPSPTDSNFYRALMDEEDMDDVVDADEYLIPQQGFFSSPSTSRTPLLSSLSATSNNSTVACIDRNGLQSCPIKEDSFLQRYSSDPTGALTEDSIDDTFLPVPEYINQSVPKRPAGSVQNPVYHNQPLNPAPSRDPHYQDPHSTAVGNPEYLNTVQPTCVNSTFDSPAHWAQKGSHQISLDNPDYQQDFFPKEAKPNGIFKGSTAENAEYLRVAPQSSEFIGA
T2 sequence (P00533 25-1210 T790M/L858R): as above
T3 sequence (P00533 with tags, fused parts or gaps DEL746-750/T790M limits assumed): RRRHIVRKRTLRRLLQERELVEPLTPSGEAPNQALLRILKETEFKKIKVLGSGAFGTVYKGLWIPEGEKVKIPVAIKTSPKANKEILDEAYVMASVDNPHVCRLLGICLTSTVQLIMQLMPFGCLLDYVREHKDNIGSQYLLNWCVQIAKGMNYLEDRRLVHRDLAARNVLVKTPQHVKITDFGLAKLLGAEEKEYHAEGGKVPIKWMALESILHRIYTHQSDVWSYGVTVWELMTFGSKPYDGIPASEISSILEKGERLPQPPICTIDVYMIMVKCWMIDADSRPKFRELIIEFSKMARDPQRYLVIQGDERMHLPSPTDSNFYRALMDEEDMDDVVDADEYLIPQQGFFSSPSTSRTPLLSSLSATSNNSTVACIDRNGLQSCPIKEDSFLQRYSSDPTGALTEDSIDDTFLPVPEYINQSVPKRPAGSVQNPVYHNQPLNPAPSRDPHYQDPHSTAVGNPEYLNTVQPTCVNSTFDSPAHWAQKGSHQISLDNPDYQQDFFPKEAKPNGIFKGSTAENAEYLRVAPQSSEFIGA

## C[C@H](n1nc(N2CC[C@@H](O)C2)c2cnc(Nc3ccnc(N4CC[C@H](O)[C@H](F)C4)n3)cc21)C(F)(F)F (relative stereo) [Example 141, (±)-cis-3-Fluoro-1-(4-(3-((R)-3-hydroxypyrrolidin-1-yl)-1-((S*)-1,1,1-trifluoropropan-2-yl)-1H-pyrazolo[4,3-c]pyridin-6-ylamino)pyrimidin-2-yl)piperidin-4-ol]
[1]
  EC50: 769 nM
EGFR T790M L858R
  Ki: 1.6 nM
[2]
  EC50: 89.2 nM
EGFR del746-750 T790M
  Ki: 2.7 nM

## CC1CN(c2nn(C(C)C)c3cc(Nc4ccnc(N5CC[C@H](O)[C@H](F)C5)n4)ncc23)C(=O)N1 (relative stereo) [Example 127, 1-(6-(2-(cis-3-Fluoro-4-hydroxypiperidin-1-yl)pyrimidin-4-ylamino)-1-isopropyl-1H-pyrazolo[4,3-c]pyridin-3-yl)-4-methylimidazolidin-2-one]
[1]
  EC50: 1380 nM
EGFR T790M L858R
  Ki: 2.5 nM
[2]
  EC50: 466 nM
EGFR del746-750 T790M
  Ki: 6 nM

## CC(C)n1nc(N2CC(C(=O)N3CCOCC3)C2)c2cnc(Nc3ccnc(-c4cnn(S(=O)(=O)C5CC5)c4)n3)cc21 [Example 163, (1-(6-(2-(1-(Cyclopropylsulfonyl)-1H-pyrazol-4-yl)pyrimidin-4-ylamino)-1-isopropyl-1H-pyrazolo[4,3-c]pyridin-3-yl)azetidin-3-yl)(morpholino)methanone]
[1]
  EC50: 344 nM
EGFR T790M L858R
  Ki: 0.9 nM
[2]
  EC50: 26.5 nM
EGFR del746-750 T790M
  Ki: 0.9 nM

## CC(C)n1nc(N2CC[C@H](O)C2)c2cnc(Nc3ccnc(-c4cnn(S(=O)(=O)C5CC5)c4)n3)cc21 [Example 123, (S)-1-(6-(2-(1-(Cyclopropylsulfonyl)-1H-pyrazol-4-yl)pyrimidin-4-ylamino)-1-isopropyl-1H-pyrazolo[4,3-c]pyridin-3-yl)pyrrolidin-3-ol]
[1]
  EC50: 201 nM
EGFR T790M L858R
  Ki: 0.6 nM
[2]
  EC50: 4.4 nM
EGFR del746-750 T790M
  Ki: 0.6 nM

## CC[C@H](C)n1nc(N2CC[C@H](O)C2)c2cnc(Nc3ccnc(N4CC[C@](C)(O)[C@H](F)C4)n3)cc21 (relative stereo) [Example 70, (3R*,4S*)-1-{4-[1-((S)-sec-Butyl)-3-((S)-3-hydroxypyrrolidin-1-yl)-1H-pyrazolo[4,3-c]pyridin-6-ylamino]pyrimidin-2-yl}-3-fluoro-4-methylpiperidin-4-ol]
[1]
  EC50: 371 nM
EGFR T790M L858R
  Ki: 2 nM
[2]
  EC50: 83 nM
EGFR del746-750 T790M
  Ki: 2.3 nM

## CC(C)n1nc(N2CC3(COC3)C2)c2cnc(Nc3ccnc(N4CCC(O)C(F)C4)n3)cc21 (racemic) [Example 21, (±)-cis-3-Fluoro-1-{4-[1-isopropyl-3-(2-oxa-6-azaspiro[3.3]hept-6-yl)-1H-pyrazolo[4,3-c]pyridin-6-ylamino]-pyrimidin-2-yl}piperidin-4-ol]
[1]
  EC50: 390 nM
EGFR T790M L858R
  Ki: 1.2 nM
[2]
  EC50: 36.1 nM
EGFR del746-750 T790M
  Ki: 3 nM

## CC(C)n1nc(N2CCNC(=O)C2)c2cnc(Nc3ccnc(-c4cnn(S(=O)(=O)C5CC5)c4)n3)cc21 [Example 59, 4-(6-(2-(1-(cyclopropylsulfonyl)-1H-pyrazol-4-yl)pyrimidin-4-ylamino)-1-isopropyl-1H-pyrazolo[4,3-c]pyridin-3-yl)piperazin-2-one]
[1]
  EC50: 738 nM
EGFR T790M L858R
  Ki: < 0.6 nM
[2]
  EC50: 92.1 nM
EGFR del746-750 T790M
  Ki: 0.5 nM

## CC(C)n1nc(N2CCC(C)(C(N)=O)C2)c2cnc(Nc3ccnc(N4CCC(C)(O)CC4)n3)cc21 (stereo not drawn) [Example 157, 1-(6-(2-(4-Hydroxy-4-methylpiperidin-1-yl)pyrimidin-4-ylamino)-1-isopropyl-1H-pyrazolo[4,3-c]pyridin-3-yl)-3-methylpyrrolidine-3-carboxamide]
[1]
  EC50: 2860 nM
EGFR T790M L858R
  Ki: 2.6 nM
[2]
  EC50: 1330 nM
EGFR del746-750 T790M
  Ki: 4.9 nM

## CC(C)n1nc(N2CC[C@H](N)C2=O)c2cnc(Nc3ccnc(N4CCC(C)(O)CC4)n3)cc21 [Example 159, (S)-3-Amino-1-(6-(2-(4-hydroxy-4-methylpiperidin-1-yl)pyrimidin-4-ylamino)-1-isopropyl-1H-pyrazolo[4,3-c]pyridin-3-yl)pyrrolidin-2-one]
[1]
  EC50: 9730 nM
EGFR T790M L858R
  Ki: 11.6 nM
[2]
  EC50: 1100 nM
EGFR del746-750 T790M
  Ki: 28.5 nM

— patent US9951064B2, “Azaindazole compounds as inhibitors of T790M containing EGFR mutants” (Genentech, Inc., priority 2013, dated 2018)
